Reference: BigSolDB 2.1

O=C(O)c1ccccc1O
solubility (mole fraction)
Details	278.15 K	283.15 K	288.15 K	293.15 K	298.15 K	303.15 K	308.15 K	313.15 K	318.15 K
in ethanol	0.108	0.117	0.126	0.136	0.145	0.157	0.17	0.182	0.197
in n-butanol	0.106	0.116	0.126	0.137	0.148	0.16	0.174	0.186	0.201
in n-heptanol	0.117	0.128	0.138	0.148	0.16	0.171	0.185	0.197	0.21
in n-hexanol	0.116	0.127	0.137	0.146	0.158	0.169	0.182	0.195	0.209
in n-pentanol	0.113	0.123	0.132	0.144	0.155	0.166	0.18	0.192	0.206
in n-propanol	0.102	0.111	0.12	0.131	0.143	0.154	0.168	0.181	0.196
